Laboratory results taken from PubChem BioAssay (NCI).
“And” between values parts separate entries of the source, which are not always exact repeats. Identical values can stand only once.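 Grown in 96-well plates, cells were treated for 48 hours with each compound at five concentrations. Insufficient inhibition: endpoint recorded as highest concentration tested. GI50 is the concentration that inhibits growth by half. TGI marks complete inhibition of growth.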

Tests used:
Assay in all cases: DTP human tumour cell line panel, 48 h
786-0 renal = system: 786-0 renal
HCT-15 colon = system: HCT-15 colon
NCI-H460 lung = system: NCI-H460 lung
LOX IMVI melanoma = system: LOX IMVI melanoma
SNB-19 CNS = system: SNB-19 CNS
NCI-H23 lung = system: NCI-H23 lung
HT29 colon = system: HT29 colon
COLO 205 colon = system: COLO 205 colon
HOP-62 NSCLC = system: HOP-62 NSCLC
HL-60(TB) leukemia = system: HL-60(TB) leukemia

Row | Structure (SMILES) | TGI (786-0 renal) | TGI (HCT-15 colon) | TGI (NCI-H460 lung) | TGI (LOX IMVI melanoma) | TGI (SNB-19 CNS) | TGI (NCI-H23 lung) | TGI (HT29 colon) | TGI (COLO 205 colon) | TGI (HOP-62 NSCLC) | TGI (HL-60(TB) leukemia) | GI50 (HL-60(TB) leukemia)
1 | NC(=O)CNC(=O)[C@@H]1CC(OCCC(=O)O)CN1C(=O)C1CCCN1C(=O)OCc1ccccc1 (stereo partly specified) | > 100 µM | > 100 µM | > 100 µM | > 100 µM | > 100 µM | > 100 µM | > 100 µM | > 100 µM | > 100 µM | > 100 µM | –
2 | COc1cc2c(c3c1c(=O)c1ccccc1n3C)C=CC1(CCCC1)O2 | 25.1 µM | 35.5 µM | 24.6 µM | 27.3 µM | 35.2 µM | 28.6 µM | 19.7 µM | 27.6 µM | 28.7 µM | 26.1 µM | –
3 | CCOC(=O)c1c(C)n(Cc2ccc(Cl)cc2Cl)c2c1cc(O)c1[nH]c3c(c12)CCCC3 | > 100 µM | > 100 µM | 89.9 µM | > 100 µM | 58 µM | 77.6 µM | 68.2 µM | > 100 µM | 93.7 µM | 2.79 µM | –
4 | CC(=O)c1c(-c2cccc3ccccc23)c(C#N)c(=S)n(C2OC(CO)C(O)C(O)C2O)c1C (stereo unspecified) | > 100 µM | > 100 µM | > 100 µM | > 100 µM | > 100 µM | > 100 µM | > 100 µM | > 100 µM | > 100 µM | > 100 µM | > 100 µM and 42.1 µM
5 | O=C1c2cccc([N+](=O)[O-])c2C(=O)N1Cc1ccccc1 | > 100 µM | > 100 µM | > 100 µM | > 100 µM | > 100 µM | > 100 µM | > 100 µM | > 100 µM | > 100 µM | > 100 µM | –
6 | O=[N+]([O-])c1ccccc1OCCOc1ccccc1[N+](=O)[O-] | > 100 µM | > 100 µM | > 100 µM | > 100 µM | > 100 µM | > 100 µM | > 100 µM | > 100 µM | > 100 µM | > 100 µM | –
7 | O=C(Nc1ccccc1)N(C1=NCC(CI)S1)c1ccc(F)c(F)c1 (stereo unspecified) | > 100 µM | > 100 µM | > 100 µM | 34 µM | > 100 µM | > 100 µM | > 100 µM | > 100 µM | > 100 µM | 79.4 µM | –
8 | Cn1c(=O)c2c(nc3n(CC(O)CCl)c(=O)ccn23)n(C)c1=O (stereo unspecified) | > 100 µM | > 100 µM | > 100 µM | > 100 µM | > 100 µM | > 100 µM | > 100 µM | > 100 µM | > 100 µM | > 100 µM | –
9 | CC1CC[C@@]2(OC1)OC1C[C@H]3[C@@H]4CC=C5CC(OC6OC(CO)C(OC7OC(CO)C(O)C(OC8OCC(O)C(O)C8O)C7OC7OC(CO)C(OC8OC(C)C(OC9OC(C)C(O)C(O)C9O)C(O)C8O)C(O)C7O)C(O)C6O)CCC5(C)[C@H]4CCC3(C)C1[C@@H]2C (stereo partly specified) | 10.3 µM | 18.9 µM | 20.2 µM | 17.3 µM | 11.6 µM | 16.7 µM | 15.4 µM | 15.6 µM | 19 µM | 17.2 µM | –
10 | COc1ccc(N2C(=O)C3c4[nH]c5ccc(OCc6ccccc6)cc5c4C4CCC(c5ccccc5)CC4C3C2=O)cc1 (stereo unspecified) | 7.51 µM | > 84 µM | 12.3 µM | > 100 µM | 40.1 µM | 32.4 µM | > 100 µM | > 100 µM | 10.2 µM | 33.3 µM | –
11 | O=C(O)CN(CC(=O)O)C1CCCCC1N1CC(=O)OC(=O)C1 (stereo unspecified) | > 100 µM | > 100 µM | > 100 µM | > 100 µM | > 100 µM | > 100 µM | > 100 µM | > 100 µM | > 100 µM | > 100 µM | –
12 | O=C(O)CCc1nc2c(n1-c1ccccc1)C(=O)c1ccccc1C2=O | > 100 µM | > 100 µM | > 100 µM | > 100 µM | > 100 µM | > 100 µM | > 100 µM | > 100 µM | > 100 µM | > 100 µM | –
13 | Cn1nc2ccc([N+](=O)[O-])c(Cn3nnc4ccccc43)c2n1 | > 100 µM | > 100 µM | > 100 µM | > 100 µM | > 100 µM | > 100 µM | > 100 µM | > 100 µM | > 100 µM | > 100 µM | –
14 | N#Cc1c(-c2ccc(Cl)cc2)c2c(nn3c4ccc5ccccc5c4nnc23)[nH]c1=O | 6.16 µM | 6.35 µM | 16.2 µM | 4.18 µM | 24.2 µM | 4.56 µM | > 33.5 µM | 10.6 µM | 7.97 µM | > 100 µM | –
15 | CN(C)CC(O)c1ccc(Cl)c2ccccc12 (stereo unspecified) | > 100 µM | > 100 µM | > 100 µM | > 66.6 µM | > 100 µM | > 100 µM | > 100 µM | 49.2 µM | > 100 µM | > 78 µM | –
16 | CCN(CCCOc1ccccc1)CCN(CC)CCCOc1ccccc1 | 50.7 µM | 30 µM | 34.9 µM | 27.9 µM | 23.4 µM | 40.6 µM | 27.4 µM | 24.5 µM | 45.5 µM | 25.4 µM | –

Row | Structure (SMILES) | TGI (786-0 renal) | TGI (HCT-15 colon) | TGI (NCI-H460 lung) | TGI (LOX IMVI melanoma) | TGI (SNB-19 CNS) | TGI (NCI-H23 lung) | TGI (HT29 colon) | TGI (COLO 205 colon) | TGI (HOP-62 NSCLC) | TGI (HL-60(TB) leukemia) | GI50 (HL-60(TB) leukemia)
17 | Cc1ccc(Nc2nc3[nH]ccc3c(=O)[nH]2)cc1 | > 100 µM | > 100 µM | > 100 µM | > 100 µM | > 100 µM | > 100 µM | > 100 µM | > 100 µM | > 100 µM | > 100 µM | –
18 | CC1=NNC(=O)C1C1C(=O)NN=C(c2c[nH]c3ccccc23)C1Br (stereo unspecified) | > 100 µM | > 100 µM | > 100 µM | > 100 µM | > 100 µM | > 100 µM | > 100 µM | > 100 µM | > 100 µM | > 100 µM | –
19 | Oc1cc(Cc2ccccc2)c(Cc2ccccc2)cc1O | > 10 µM | > 10 µM | > 10 µM | > 10 µM | > 10 µM | > 10 µM | > 10 µM | > 10 µM | > 10 µM | > 10 µM | –
20 | OC1[C@@H]2[C@@H](O)CCCN2C[C@@H](O)[C@H]1O (stereo partly specified) | > 100 µM | > 100 µM | > 100 µM | > 100 µM | > 100 µM | > 100 µM | > 100 µM | > 100 µM | > 100 µM | > 100 µM | –
21 | Cc1ccc(S(=O)(=O)NC(=O)Nc2nnc(S(N)(=O)=O)s2)cc1 | > 100 µM | > 100 µM | > 100 µM | > 100 µM | > 100 µM | > 100 µM | > 100 µM | > 100 µM | > 100 µM | > 100 µM | –
22 | CC(C)/C(Cl)=N/OC(=O)Nc1ccc(Br)cc1 | 3.63 µM | 5.34 µM | 30.7 µM | 2.85 µM | 44.1 µM | 26.5 µM | 18.5 µM | 3.43 µM | 31.7 µM | 7.62 µM | –
23 | COc1cccc(N2C(=O)CSC2c2cccc(Oc3ccccc3)c2)c1 (stereo unspecified) | 24 µM | 76.9 µM | 12.3 µM | 27.2 µM | > 100 µM | > 100 µM | 37.5 µM | 10.2 µM | > 100 µM | 66.5 µM | –
24 | C/C(CC(O)(C(F)(F)F)C(F)(F)F)=N\NC(N)=O | > 10 µM | > 10 µM | > 10 µM | > 10 µM | > 10 µM | > 10 µM | > 10 µM | > 10 µM | > 10 µM | > 10 µM | –
25 | O=c1[nH]c(Nc2ccccc2)nc2c1ncn2CC(O)CSCCO (stereo unspecified) | > 100 µM | > 100 µM | > 100 µM | > 100 µM | > 100 µM | > 100 µM | > 100 µM | > 100 µM | > 100 µM | > 100 µM | –
26 | CC(C)(C)c1ccc(OCCOc2ccc(C(C)(C)C)cc2N)c(N)c1 | > 100 µM | > 100 µM | > 100 µM | > 100 µM | > 100 µM | > 100 µM | > 100 µM | > 100 µM | > 100 µM | > 100 µM | –
27 | c1ccc(-c2csc3c4ccccc4c4ccccc4[n+]23)cc1 | 21 µM | > 78.7 µM | 10.2 µM | 16.9 µM | 7.52 µM | 11.9 µM | 20.6 µM | 7.73 µM | 20.7 µM | > 35 µM | –
28 | COC(=O)C1(NC(=O)C(CC(=O)OCc2ccccc2)NC(=O)OCc2ccccc2)CCCCCC1 (stereo unspecified) | > 100 µM | > 100 µM | > 100 µM | 66 µM | > 100 µM | > 100 µM | 50.7 µM | 47.3 µM | 67.5 µM | 51 µM | –
29 | C[C@@]1(O)C2CC3CC1(c1ccccc1)CC(/C3=N/O)/C2=N\O (stereo partly specified) | > 100 µM | > 100 µM | > 100 µM | > 100 µM | > 100 µM | > 100 µM | > 100 µM | > 100 µM | > 100 µM | > 100 µM | –
30 | CC(N=NNc1ccc(-c2nc3ccccc3[nH]2)cc1)C(=O)O (stereo unspecified) | 89.9 µM | 61.6 µM | 79 µM | > 100 µM | > 100 µM | > 100 µM | > 100 µM | > 100 µM | > 100 µM | > 100 µM | –
31 | N#CN1C2CCC1CC(=O)C2 | > 100 µM | > 100 µM | > 100 µM | > 100 µM | > 100 µM | > 100 µM | > 100 µM | > 100 µM | > 100 µM | > 100 µM | –
32 | Cc1ccc(C(=N)c2ccccc2Cc2cccc3ccccc23)c2ccccc12 | > 100 µM | > 100 µM | > 100 µM | > 100 µM | > 100 µM | > 100 µM | > 100 µM | > 100 µM | > 100 µM | > 100 µM | –
